Measured values taken from PubChem BioAssay (NCI).
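A five-concentration, 48-hour dose response in 96-well plates underlies each endpoint, interpolated linearly between surrounding concentrations. GI50: concentration for 50% inhibition of growth. TGI marks complete inhibition of growth.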

Assays:
Test in all cases: DTP human tumour cell line panel, 48 h
786-0 renal = system: 786-0 renal
ACHN renal = system: ACHN renal
CCRF-CEM leukemia = system: CCRF-CEM leukemia
HCT-15 colon = system: HCT-15 colon
HOP-62 NSCLC = system: HOP-62 NSCLC
OVCAR-5 ovarian = system: OVCAR-5 ovarian
SF-295 CNS = system: SF-295 CNS
SN12C renal = system: SN12C renal
TK-10 renal = system: TK-10 renal
UACC-62 melanoma = system: UACC-62 melanoma

Compound | GI50 (786-0 renal) | TGI (786-0 renal) | GI50 (ACHN renal) | TGI (ACHN renal) | GI50 (CCRF-CEM leukemia) | TGI (CCRF-CEM leukemia) | GI50 (HCT-15 colon) | TGI (HCT-15 colon) | TGI (HOP-62 NSCLC) | GI50 (OVCAR-5 ovarian) | TGI (OVCAR-5 ovarian) | GI50 (SF-295 CNS) | TGI (SF-295 CNS) | GI50 (SN12C renal) | TGI (SN12C renal) | GI50 (TK-10 renal) | TGI (TK-10 renal) | TGI (UACC-62 melanoma) | GI50 (HOP-62 NSCLC) | GI50 (UACC-62 melanoma)
C=CC(=O)N1CCN(c2nc(OC[C@@H]3CCCN3C)nc3c(F)c(-c4nc(N)cc(C)c4C(F)(F)F)c(Cl)cc23)[C@@H](C)C1 | 3.6 µM | 15.3 µM | 3.41 µM | 12.6 µM | 3.08 µM | > 100 µM | 1.7 µM | 3.47 µM | 13.1 µM | 9.68 µM | 21.7 µM | 4.74 µM | 16.9 µM | 1.6 µM | 3.62 µM | 2.01 µM | 4.53 µM |  |  | 
CC1(C)CCOC(Sc2ccccc2)C1 (centres undefined) |  | > 100 µM |  | > 100 µM |  | > 100 µM |  | > 100 µM | > 100 µM |  |  |  | > 100 µM |  | > 100 µM |  | > 100 µM | > 100 µM |  | 
CN(C)Cc1nsc(N(C)C)n1 |  | > 100 µM |  | > 100 µM |  |  |  | > 100 µM | > 100 µM |  | > 100 µM |  | > 100 µM |  | > 100 µM |  | > 100 µM | > 100 µM |  | 
O=C(/C=C/c1cccc(Cl)c1)c1ccccc1 | 10.6 µM | 22.8 µM | 10.5 µM | 23.3 µM | 3.49 µM | 23.2 µM | 4.22 µM | 22.7 µM | 29.9 µM | 11.2 µM | 24.5 µM | 3.88 µM | 18 µM | 14.6 µM | 28.3 µM |  |  | 27.9 µM | 15.7 µM | 13.9 µM
O=C1c2c[n+](Cc3ccccc3)ccc2-c2nc3ccccc3c3ccnc1c23 | 0.829 µM | 2.76 µM | 0.196 µM | 33.3 µM | 0.951 µM | 2.81 µM | 0.87 µM | 6.18 µM | 0.817 µM | 1.63 µM | 10.5 µM | 0.585 µM | 5.71 µM |  |  | 0.818 µM | 2.8 µM | 1.78 µM | 0.0569 µM | 0.594 µM
O=S(=O)(c1ccccc1)C1(C2(S(=O)(=O)c3ccccc3)CCN=N2)CCN=N1 (centres undefined) |  | > 100 µM |  | > 100 µM |  | > 100 µM |  | > 100 µM |  |  | > 100 µM |  | > 100 µM |  | > 100 µM |  | > 100 µM |  |  | 
O=C(NCCc1nccs1)c1cnc2c(S)cccc2c1 | 5.33 µM | 36 µM | 3.36 µM | 14.1 µM | 1.77 µM | > 100 µM | 3.49 µM | 88.6 µM | 20.9 µM | 10 µM | 41.6 µM | 2.8 µM | 17.1 µM |  |  | 5.8 µM | 19.5 µM | 24.1 µM | 4.13 µM | 2.68 µM
O=S(=O)([O-])c1ccc(C=Nc2ccccc2)c([O-])c1.O=S(=O)([O-])c1ccc(C=Nc2ccccc2)c([O-])c1.[Co+2] | 94.7 µM | > 100 µM | 48.1 µM | > 100 µM | 11.7 µM | > 100 µM | 45.5 µM | > 100 µM |  | 16.1 µM | > 100 µM | > 100 µM | > 100 µM | 18.8 µM | > 100 µM | > 100 µM | > 100 µM | > 100 µM |  | 3.96 µM
CN(COC(=O)C(C)(C)C)c1nc(N(C)COC(=O)C(C)(C)C)nc(N(C)COC(=O)C(C)(C)C)n1 |  | > 100 µM |  | > 100 µM |  | > 100 µM |  | 43.9 µM | > 100 µM |  | > 100 µM |  | > 100 µM |  | > 100 µM |  | > 100 µM |  |  | 
Nc1ncnc2c1ncn2C1(CO)OC(CO)C(O)C1O (centres undefined) |  | > 100 µM |  | > 100 µM |  | > 100 µM |  | > 100 µM | > 100 µM |  | > 100 µM |  | > 100 µM |  | > 100 µM |  | > 100 µM |  |  | 
CCOC(=O)c1c(C)n(Cc2ccc(Cl)cc2Cl)c2c1cc(O)c1[nH]c(Cc3ccccc3)nc12 | 3.67 µM | 13.7 µM | 3.49 µM | 13.4 µM |  |  | 3.94 µM | 18.5 µM | 19.4 µM | 3.65 µM | 9.36 µM | 5.92 µM | 26.2 µM | 4 µM | 12.1 µM | 7.07 µM | 29 µM | 34.1 µM | 4.61 µM | 18.6 µM
CN1C=C(C(N)=O)Cc2ccsc21 |  | > 100 µM |  | > 100 µM |  | > 100 µM |  | > 100 µM | > 100 µM |  | > 100 µM |  | > 100 µM |  | > 100 µM |  |  | > 100 µM |  | 
O=C(OCc1ccccc1)N1N=NC2C3CC(OCc4ccccc4)(OCc4ccccc4)C(O3)C21 (centres undefined) |  | > 100 µM |  | > 100 µM |  | > 100 µM |  | > 100 µM | > 100 µM |  | 70.4 µM |  | > 100 µM |  | > 100 µM |  |  | 61.4 µM |  | 
NC(=O)c1c(NC(=O)c2ccc(C(F)(F)F)cc2Cl)sc2c1CCC(=O)C2 | 0.475 µM | 15.6 µM | 0.322 µM | 1.04 µM | 0.146 µM | > 100 µM |  |  | > 44.5 µM | 0.468 µM | 2.33 µM | 1.05 µM | 4.5 µM | 0.36 µM | 2.04 µM | 0.423 µM | 4.07 µM | 1.21 µM | 1.25 µM | 0.274 µM
COc1ccc(/C(=N/O)c2cc(F)c(F)c(OC)c2F)cc1O | 10.5 µM | > 100 µM | 0.94 µM | > 100 µM | 0.528 µM | 35.2 µM | 0.42 µM | > 100 µM | > 100 µM |  |  | 0.392 µM | 18.2 µM | 0.832 µM | > 100 µM | 17.9 µM | > 100 µM |  | 0.502 µM | 
O=C(N/N=C/c1coc2ccc(Cl)cc2c1=O)c1cc(O)c(O)c(O)c1 | 23.4 µM | 66 µM | 22.1 µM | 52.5 µM | 33.2 µM | > 100 µM | 21.5 µM | 79.7 µM | 89.4 µM | 24.6 µM | 74.9 µM | 45.8 µM | > 100 µM | 24.1 µM | 65.4 µM |  |  | 40.1 µM | 38.8 µM | 19.8 µM
Cc1ncc2c(n1)CCC1=C2OS(=O)(=O)CC1N(C)C (centres undefined) |  | > 100 µM |  | > 100 µM |  | > 100 µM |  |  | > 100 µM |  | > 100 µM |  |  |  | > 100 µM |  | > 100 µM | > 100 µM |  | 
